Source: US20210369680A1, “METHODS OF TREATING DISEASES AND DISORDERS RESULTING FROM BETA CORONAVIRUS INFECTION” (T3D Therapeutics, Inc., priority 2020, published 2021)

Experiments:
human PPARγ = molecular target: T1, human PPARγ (Homo sapiens, UniProt P37231); test: Human PPAR activation, transient transfection study in transfected CV-1 cells; type: cell-based
T1 construct: expressed in transfected cells; host or cells: CV-1 cells
T1 sequence (P37231 1-505): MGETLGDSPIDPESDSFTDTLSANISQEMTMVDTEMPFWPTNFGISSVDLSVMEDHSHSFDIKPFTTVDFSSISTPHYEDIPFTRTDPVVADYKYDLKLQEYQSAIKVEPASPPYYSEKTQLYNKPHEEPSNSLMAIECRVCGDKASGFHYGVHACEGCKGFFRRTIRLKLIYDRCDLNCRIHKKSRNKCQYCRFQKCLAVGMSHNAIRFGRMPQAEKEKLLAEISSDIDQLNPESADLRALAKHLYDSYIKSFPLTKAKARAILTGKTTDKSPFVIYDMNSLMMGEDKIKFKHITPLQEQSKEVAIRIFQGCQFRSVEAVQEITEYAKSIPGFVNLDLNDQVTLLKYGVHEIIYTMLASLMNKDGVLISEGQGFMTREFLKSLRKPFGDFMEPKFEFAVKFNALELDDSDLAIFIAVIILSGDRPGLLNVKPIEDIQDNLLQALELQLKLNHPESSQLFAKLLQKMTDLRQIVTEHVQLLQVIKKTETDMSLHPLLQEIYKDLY
From the text: (§1) Human PPAR Activation by Compound of Example 11 in Transient Transfection Study
(§2) Table 2 summarizes the results of studies performed in transfected CV-1 cells with three different lots of Compound of Example 11. […].

human PPARα = molecular target: T2, human PPARα (Homo sapiens, UniProt Q07869); test: as above; type: cell-based
T2 construct: expressed in transfected cells; host or cells: CV-1 cells
T2 sequence (Q07869 1-468): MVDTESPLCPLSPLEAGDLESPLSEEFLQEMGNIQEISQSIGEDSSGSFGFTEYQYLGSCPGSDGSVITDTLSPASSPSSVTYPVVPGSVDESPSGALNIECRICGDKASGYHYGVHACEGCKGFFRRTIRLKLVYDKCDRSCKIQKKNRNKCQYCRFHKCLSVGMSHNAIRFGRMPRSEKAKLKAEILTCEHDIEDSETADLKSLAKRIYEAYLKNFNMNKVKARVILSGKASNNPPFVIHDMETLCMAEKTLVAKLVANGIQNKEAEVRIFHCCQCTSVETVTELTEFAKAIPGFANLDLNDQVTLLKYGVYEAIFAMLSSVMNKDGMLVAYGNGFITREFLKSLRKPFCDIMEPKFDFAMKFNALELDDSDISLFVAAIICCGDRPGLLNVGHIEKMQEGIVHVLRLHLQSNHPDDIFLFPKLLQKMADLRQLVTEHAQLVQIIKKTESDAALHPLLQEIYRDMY
From the text: as §1, §2

[1] = FDG-PET relative cerebral metabolic rate for glucose, clinical study; type: in vivo, human; conditions: for R CMRgl change (EOT-BL) relative to average Whole Brain: combined dose groups
From the text: FDG-PET Data from Clinical Study with Compound of Example 11
FDG-PET scans were obtained at three clinical sites.
Increases and decreases in relative regional glucose metabolism (A R CMRgl (EOT-BL)) were observed over the treatment period.

[2] = Fasting plasma glucose in 2-week clinical study; type: in vivo, human; set-up: FPG on Day 1 / FPG on Day 14 / FPG on Day 21 / FPG Change from D 1 to D 14 / FPG Change from D 1 to D 21: unit not given here
From the text: Fasting Plasma Glucose Levels for Compound 11 from a Clinical Study
FPG measured in millimoles/Liter (MMOL/L), averaged over all subjects, was lowered from day 1 to day 14. For each individual dose group day 14 FPG levels were lower than day 1 levels. […] For the two highest doses, the FPG remained lower on follow-up testing on day 21, one week after end of treatment.

human PPARδ = molecular target: T3, human PPARδ (Homo sapiens, UniProt Q03181); test: Human PPAR activation, transient transfection study in transfected CV-1 cells; type: cell-based
T3 construct: expressed in transfected cells; host or cells: CV-1 cells
T3 sequence (Q03181 1-441): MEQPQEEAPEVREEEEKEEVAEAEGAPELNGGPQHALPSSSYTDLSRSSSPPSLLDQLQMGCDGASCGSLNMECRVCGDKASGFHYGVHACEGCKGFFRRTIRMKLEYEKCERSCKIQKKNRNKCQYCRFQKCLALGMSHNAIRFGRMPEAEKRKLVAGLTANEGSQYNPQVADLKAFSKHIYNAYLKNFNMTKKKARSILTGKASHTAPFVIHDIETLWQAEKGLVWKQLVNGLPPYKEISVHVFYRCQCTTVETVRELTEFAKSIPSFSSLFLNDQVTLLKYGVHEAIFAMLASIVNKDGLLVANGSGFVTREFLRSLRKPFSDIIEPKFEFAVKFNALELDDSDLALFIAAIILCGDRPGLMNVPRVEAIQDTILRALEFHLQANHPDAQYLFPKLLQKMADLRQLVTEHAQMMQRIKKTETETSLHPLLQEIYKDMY

P-glycoprotein (P-gp) = molecular target: T4, P-glycoprotein (P-gp) (Homo sapiens, UniProt P08183); test: Effect of P-gp inhibitor verapamil on Caco-2 permeability; type: in vitro ADME
T4 construct: endogenous in cells; host or cells: Caco-2 cells
From the text: Example 18: Effect of P-gp Inhibitor Verapamil on Caco-2 Permeability of Compound of Example 11

T4 sequence (P08183 whole entry): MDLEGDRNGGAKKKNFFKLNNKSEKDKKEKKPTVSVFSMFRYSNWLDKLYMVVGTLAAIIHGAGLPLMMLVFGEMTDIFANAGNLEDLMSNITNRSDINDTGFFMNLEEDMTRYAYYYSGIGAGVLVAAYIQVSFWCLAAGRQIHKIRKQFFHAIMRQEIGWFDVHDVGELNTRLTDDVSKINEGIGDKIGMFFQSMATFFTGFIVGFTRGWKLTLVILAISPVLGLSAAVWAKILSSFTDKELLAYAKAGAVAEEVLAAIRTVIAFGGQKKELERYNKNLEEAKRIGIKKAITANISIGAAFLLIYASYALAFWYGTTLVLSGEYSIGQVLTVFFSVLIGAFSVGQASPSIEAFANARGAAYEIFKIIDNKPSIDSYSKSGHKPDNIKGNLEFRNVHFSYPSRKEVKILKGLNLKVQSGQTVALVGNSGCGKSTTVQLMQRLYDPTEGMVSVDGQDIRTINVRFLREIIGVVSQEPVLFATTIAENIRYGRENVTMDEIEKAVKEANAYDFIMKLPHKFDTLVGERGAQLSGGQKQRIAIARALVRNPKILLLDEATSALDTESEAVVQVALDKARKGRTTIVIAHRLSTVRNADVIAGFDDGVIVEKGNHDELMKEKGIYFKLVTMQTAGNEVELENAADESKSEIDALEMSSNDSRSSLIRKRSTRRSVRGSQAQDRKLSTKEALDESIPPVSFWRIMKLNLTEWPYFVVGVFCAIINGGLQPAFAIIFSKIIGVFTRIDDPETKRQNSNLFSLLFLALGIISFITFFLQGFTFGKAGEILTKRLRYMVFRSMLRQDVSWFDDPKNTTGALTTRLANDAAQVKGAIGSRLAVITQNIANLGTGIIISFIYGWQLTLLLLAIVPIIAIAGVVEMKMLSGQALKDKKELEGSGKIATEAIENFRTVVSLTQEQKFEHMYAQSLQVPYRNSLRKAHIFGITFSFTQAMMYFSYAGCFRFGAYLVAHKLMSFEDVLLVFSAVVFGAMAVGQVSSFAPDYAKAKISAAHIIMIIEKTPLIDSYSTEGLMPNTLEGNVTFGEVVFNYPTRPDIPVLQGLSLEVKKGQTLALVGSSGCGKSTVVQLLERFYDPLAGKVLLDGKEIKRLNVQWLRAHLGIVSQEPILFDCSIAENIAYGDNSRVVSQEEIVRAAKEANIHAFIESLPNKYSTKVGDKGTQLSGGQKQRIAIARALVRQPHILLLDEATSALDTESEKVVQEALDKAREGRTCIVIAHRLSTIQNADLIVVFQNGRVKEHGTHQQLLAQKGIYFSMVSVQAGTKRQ

## CCc1oc(-c2ccc(OC)cc2)nc1CCOc1ccc2c(c1)CC[C@H]2CC(=O)[O-].[Na+] [Example 11, Sodium (S)-2-(5-(2-(5-ethyl-2-(4-methoxyphenyl)oxazol-4-yl)ethoxy)-2,3-dihydro-1H-inden-1-yl)acetate]
Human PPARγ
  Peak effect PPARγ: 29.49
Human PPARγ; CV-1, read-out: Average % maximal response PPARγ
  Emax: 74%
Human PPARα
  Peak effect PPARα: 1.87
Human PPARα; CV-1, average of three lots, read-out: Average % maximal response PPARα
  Emax: 49%
Human PPARα; average of three lots
  Average % maximal response PPARα: significantly reduced
[1]; 10 mg
  spatial extent of ROSDs with positive R CMRgl change (p<0.005): 70 voxels
[1]; 90 mg
  spatial extent of ROSDs with positive R CMRgl change (p<0.005): 2136 voxels
[1]; Cingulum Ant L
  R CMRgl change (EOT-BL) relative to average Whole Brain: 0.03 ± 0.04
[1]; Cingulum Ant R
  R CMRgl change (EOT-BL) relative to average Whole Brain: 0.02 ± 0.05
[1]; Cingulum Ant intersection L
  R CMRgl change (EOT-BL) relative to average Whole Brain: 0.04 ± 0.05
[1]; Cingulum Ant intersection R
  R CMRgl change (EOT-BL) relative to average Whole Brain: 0.03 ± 0.04
[1]; Insula L
  R CMRgl change (EOT-BL) relative to average Whole Brain: 0.02 ± 0.03
[1]; Insula R
  R CMRgl change (EOT-BL) relative to average Whole Brain: 0.02 ± 0.04
[1]; Insula intersection L
  R CMRgl change (EOT-BL) relative to average Whole Brain: 0.03 ± 0.03
[1]; Insula intersection R
  R CMRgl change (EOT-BL) relative to average Whole Brain: 0.03 ± 0.04
[1]; Orbital front intersection L
  R CMRgl change (EOT-BL) relative to average Whole Brain: 0.03 ± 0.04
[1]; Orbital front intersection R
  R CMRgl change (EOT-BL) relative to average Whole Brain: 0.03 ± 0.03
[1]; Putamen L
  R CMRgl change (EOT-BL) relative to average Whole Brain: 0.05 ± 0.07
[1]; Putamen R
  R CMRgl change (EOT-BL) relative to average Whole Brain: 0.05 ± 0.06
[1]; Putamen intersection L
  R CMRgl change (EOT-BL) relative to average Whole Brain: 0.06 ± 0.06
[1]; Putamen intersection R
  R CMRgl change (EOT-BL) relative to average Whole Brain: 0.06 ± 0.06
[2]; 3 mg
  FPG Change from D 1 to D 14: −2.2
  FPG Change from D 1 to D 21: 2.5
  FPG on Day 1: 94.6
  FPG on Day 14: 92.4
  FPG on Day 21: 97.1
[2]; 10 mg
  FPG Change from D 1 to D 14: −3.4
  FPG Change from D 1 to D 21: 0.5
  FPG on Day 1: 101.4
  FPG on Day 14: 98
  FPG on Day 21: 101.9
[2]; 30 mg
  FPG Change from D 1 to D 14: −4.6
  FPG Change from D 1 to D 21: −0.1
  FPG on Day 1: 99.2
  FPG on Day 14: 94.6
  FPG on Day 21: 99.1
[2]; 90 mg
  FPG Change from D 1 to D 14: −7.0
  FPG Change from D 1 to D 21: −4.7
  FPG on Day 1: 101.1
  FPG on Day 14: 94.1
  FPG on Day 21: 96.4
[2]; 2-week clinical study, 34 subjects
  Fasting Plasma Glucose (FPG) levels: lowered as a function of dose
[2]; All subjects
  FPG Change from D 1 to D 14: −4.3
  FPG Change from D 1 to D 21: −1
  FPG on Day 1: 99.1
  FPG on Day 14: 94.8
  FPG on Day 21: 98.1
Human PPARδ
  Peak effect PPARδ: 17.68
  greater potency in activating human PPARδ over human PPARγ: 15 fold
  selectivity over the human PPAR alpha subtype: ~30 fold
Human PPARδ; CV-1, read-out: Average % maximal response PPARδ
  Emax: 76%
P-glycoprotein (P-gp)
  substrate for P-gp: not a substrate
